Molecules are shown by their SMILES.

For experiment [1], the target named is T1, PRKACA (Homo sapiens, UniProt P17612).
T1 construct: purchased Millipore 539482
Nature of the experiment: PRKACA assay at Km (EZ Reader 2 electrophoretic mobility shift). The experiment is classed as biochemical. Particulars: 5 μM ATP (Km), 1 μM Kemptide, 90 minutes at 25 C; read-out: Enz PRKACA IC50. The procedure: (§1) A Perkin Elmer electrophoretic mobility shift platform (the EZ Reader 2) was used to assess the activity of test compounds against a kinase of interest. Fluorescently labeled substrate peptide was incubated in the presence of kinase, ATP, and the test compound, so that a portion of the peptide was phosphorylated by the enzyme. At the end of the reaction, the mix of phosphorylated (product) and non-phosphorylated (substrate) peptide containing solutions was passed through the microfluidic system of the Perkin Elmer EZ Reader 2 under an applied potential difference. The presence of the phosphate group on the product peptide provided a difference in mass and charge between those of the substrate peptide, resulting in a separation of the substrate and product pools in the sample. As the stopped solutions passed under the instrument's LED light the phosphorylated and un-phosphorylated fluorophore bound peptides were detected and resolved as separate peaks. The ratio between these peaks therefore reflected the test compound's impact on the kinase at that concentration in that well under those conditions.
PRKACA assay at Km: In each well of a 384-well plate, 0.007 ng/ul (0.18 nM) of PRKACA enzyme (Millipore: 539482) was incubated in a total of 12.5 μl of buffer (100 mM HEPES pH 7.5, 0.015% Brij 35, 10 mM MgCl2, 1 mM DTT) with 1 μM Kemptide peptide substrate (5-FAM-LRRASLG) (Anaspec 29933) and 5 μM ATP at 25 C for 90 minutes in the presence or absence of a dosed concentration series of test compounds (1% DMSO final concentration). The reaction was stopped by the addition of 80 μl of Stop buffer (100 mM HEPES pH 7.5, 0.015% Brij 35, 35 mM EDTA and 0.2% of Coating Reagent 3 (Perkin Elmer)). The plate was then read on the EZ Reader 2 (protocol settings: −2.0 psi, upstream voltage −700, downstream voltage −2700, post sample sip 60 seconds). Data was normalized to 0% and 100% inhibition controls and the IC50 calculated using a 4-parameter fit using GraphPad Prism.

For experiment [2], the system named is PKA (phosphorylation of VASP on Serine 157). Put plainly: Cellular potency assay: P-VASP(157) HTRF in Forskolin-stimulated Huh7 cells. Format: cell-based. The following applies: Homo sapiens, Huh-7, 4 hours compound, 5 μM Forskolin 30 minutes, read-out: Phos VASP(S157) IC50. From the text: PKA directly phosphorylate VASP on Serine 157. Phosphorylation of VASP on Serine 157. P-VASP(157) was therefore used as a readout of PKA cellular activity. P-VASP(157) was detected with a HTRF assay, which is based on a TR-FRET sandwich immunoassay-based format comprising two specific anti-VASP antibodies following the manufactors protocol (Cisbio, Catalog No. 63ADK066PEH). PKA was activated in the assay by the addition of Forskolin (Sigma-Aldrich, Catalog No. F3917).
Dose response in Forskolin-stimulated human Huh7 cells was measured as follows. Briefly, Huh7 cells were plated at a density of 2×10^4 cells per well in a 384-well opti-well cell culture plate in 15 μl of serum- and phenol-free Dulbecco's Modified Eagle Medium (DMEM, Gibco Catalog No. 21063-029), and incubated for over night at 37° C., 5% CO2. The next day, 3 μl of a dosed concentration series of test compound (0.24%) DMSO final concentration) was added to the wells, and the cells were incubated for an additional 4 hours at 37° C., 5% CO2. 2 μl of Forskolin was added at a final concentration of 5 μM and the plates were incubated for 30 minutes at 37° C., 5% CO2. 5 μl of lysis buffer containing 1% HALT protease cocktail inhibitors (ThermoFisher, Catalog No. 78430), was added to the cells and the mixture was incubated under gentle shaking for 30 min at room temperature. 10 μl of this lysate was transferred to a 384-well proxi plate and 2.5 μL of the premixed antibody solution was added. An antibody solution was prepared by combining phopho-VASP cryptate antibody and phospho-VASP d2 antibody, at twenty-fold dilution into a buffer solution following the manufactors' protocol. The lysate and antibody mixture was incubated for either 3 h at room temperature or overnight at 4° C. The fluorescence emission at two different wavelengths (665 nm and 620 nm) was read on an EnVision instrument.

For experiment [3], the target named is T2, PRKACA-DNAJB1 (Homo sapiens, UniProt P17612).
T2 construct: DNAJB1 (fusion partner, P25685); the other entry of the earlier key: DNAJB1 (P25685, DnaJ homolog subfamily B member 1)
Nature of the experiment: PRKACA-DNAJB1 enzyme assay (EZ Reader 2 electrophoretic mobility shift). Format: biochemical. The following applies: read-out: Enz PRKACA-DNAJB1 IC50. The procedure:
as §1

As for `O=C(N[C@H]1CCOc2ccc(F)cc21)c1ccc(-c2ccnc3[nH]ccc23)cc1` [Compound 114], the half-inhibitory concentration (IC50) in experiment [1] is at most 1 nM; in experiment [2], below 50 nM; in experiment [3], at most 1 nM.
As for `Cc1c[nH]c2nccc(-c3ccc(C(=O)N[C@@H]4c5c(F)cc(C(F)F)cc5OCC4O)cn3)c12` (single isomer, unassigned) [Compound 171], the figures for the IC50 in experiment [1], in experiment [2] and in experiment [3] were at most 1 nM, below 50 nM and at most 1 nM, respectively.
With `C[C@]1(O)CCN([C@@H]2Cc3cccc(Cl)c3[C@H]2NC(=O)c2ccc(-c3ccnc4[nH]ccc34)nc2)C1` [Compound 180], the IC50 in experiment [1] was at most 1 nM; in experiment [2], below 50 nM; in experiment [3], at most 1 nM.
Turning to `C[C@H]1Oc2cccc(F)c2[C@@H](NC(=O)c2ccc(-c3ccnc4[nH]ccc34)nc2)[C@H]1O` (single isomer, unassigned) [Compound 136], the IC50 was at most 1 nM in experiment [1], 0.01 to 100 nM in experiment [2] and at most 1 nM in experiment [3].
Take `O=C(N[C@H]1CCOc2ccc(F)c(F)c21)c1ccc(-c2ccnc3[nH]ccc23)cc1` [Compound 129, N-[(4S)-5,6-Difluoro-3,4-dihydro-2H-1-benzopyran-4-yl]-4-{1H-pyrrolo[2,3-b]pyridin-4-yl}benzamide]: the IC50 in experiment [1] was at most 1 nM; in experiment [2], below 50 nM; in experiment [3], at most 1 nM.
As to `O=C(N[C@@H]1c2c(ccc(F)c2F)C[C@@H]1O)c1ccc(-c2ccnc3[nH]cc(F)c23)nc1` [Compound 146], the IC50 in experiment [1] is at most 1 nM; in experiment [2] it was 0.01 to 100 nM; in experiment [3] it was at most 1 nM.
As for `O=C(N[C@@H]1c2c(Cl)cccc2C[C@H]1N1CC[C@@H](O)C1)c1ccc(-c2ccnc3[nH]ccc23)cn1` [Compound 176], the IC50 in experiment [1] is at most 1 nM; in experiment [2], below 50 nM; in experiment [3], at most 1 nM.
`O=C(N[C@@H]1c2ccccc2C[C@H]1O)c1ccc(-c2ccnc3[nH]ccc23)cc1` [Compound 102]: the 50% inhibitory concentration (IC50) in experiment [1] was at most 1 nM; in experiment [2] it was 0.01 to 100 nM; in experiment [3] it was at most 1 nM.
As to `O=C(N[C@@H]1c2ccccc2C[C@H]1F)c1ccc(-c2ccnc3[nH]ccc23)cc1` [Compound 104, N-((1R,2R)-2-Fluoro-2,3-dihydro-1H-inden-1-yl)-4-(1H-pyrrolo[2,3-b]pyridin-4-yl)benzamide], the figures for the IC50 in experiment [1], in experiment [2] and in experiment [3] were at most 1 nM, 0.01 to 100 nM and at most 1 nM, respectively.
Consider `Cc1c[nH]c2nccc(-c3ccc(C(=O)N[C@@H]4c5c(F)cc(C(F)F)cc5OCC4O)cn3)c12` (single isomer, unassigned) [Compound 172], for which the results for the half-inhibitory concentration (IC50) in experiment [1], in experiment [2] and in experiment [3] were at most 1 nM, below 50 nM and at most 1 nM, respectively.
For the compound `O=C(N[C@@H]1c2c(Cl)cccc2C[C@H]1N1C[C@H](O)[C@@H](F)C1)c1ccc(-c2ccnc3[nH]ccc23)nc1` [Compound 185], the IC50 was at most 1 nM in experiment [1], below 50 nM in experiment [2] and at most 1 nM in experiment [3].
For `Cc1c[nH]c2nccc(-c3ccc(C(=O)N[C@@H]4c5ccccc5C[C@H]4N4CCCC4)cn3)c12` [Compound 152], the concentration for half-maximal inhibition (IC50) in experiment [1] lay in the range of 1.01 to 5 nM; in experiment [2], 0.01 to 100 nM; in experiment [3] it was 1.01 to 5 nM.
For the compound `O=C(N[C@H]1CCOc2ccccc21)c1ccc(-c2ccnc3[nH]cc(F)c23)cc1` [Compound 115], the results for the IC50 in experiment [1], in experiment [2] and in experiment [3] were at most 1 nM, below 50 nM and at most 1 nM, respectively.
With `O=C(N[C@@H]1c2c(F)cccc2OC[C@@H]1O)c1ccc(-c2ccnc3[nH]cc(F)c23)nc1` [Compound 141], the IC50 is at most 1 nM in experiment [1], 0.01 to 100 nM in experiment [2] and at most 1 nM in experiment [3].
`O=C(N[C@@H]1c2ccccc2C[C@H]1OCCO)c1ccc(-c2ccnc3[nH]ccc23)cc1` [Compound 134, N-[(1R,2R)-2-(2-Hydroxyethoxy)-2,3-dihydro-1H-inden-1-yl]-4-{1H-pyrrolo[2,3-b]pyridin-4-yl}benzamide]: the IC50 is at most 1 nM in experiment [1], below 50 nM in experiment [2] and at most 1 nM in experiment [3].
In the case of `O=C(N[C@@H]1c2ccccc2C[C@@H]1O)c1ccc(-c2ccnc3[nH]cc(F)c23)cc1` [Compound 112, 4-(3-Fluoro-1H-pyrrolo[2,3-b]pyridin-4-yl)-N-((1R,2S)-2-hydroxy-2,3-dihydro-1H-inden-1-yl)benzamide], the IC50 in experiment [1] is at most 1 nM; in experiment [2] it was 0.01 to 100 nM; in experiment [3], at most 1 nM.
Regarding `Cc1c[nH]c2nccc(-c3ccc(C(=O)N[C@@H]4c5c(ccc(F)c5F)O[C@H](C)[C@@H]4O)cn3)c12` [Compound 161], the concentration for half-maximal inhibition (IC50) in experiment [1] is at most 1 nM; in experiment [2] it was 0.01 to 100 nM; in experiment [3], at most 1 nM.
Turning to `C[C@@H]1Oc2ccc(F)c(F)c2[C@@H](NC(=O)c2ccc(-c3ccnc4[nH]ccc34)nc2)[C@@H]1O` [Compound 150], the IC50 was at most 1 nM in experiment [1], below 50 nM in experiment [2] and at most 1 nM in experiment [3].
Turning to `O=C(N[C@@H]1c2c(Cl)cccc2C[C@H]1N1C[C@@H](F)[C@@H](O)C1)c1ccc(-c2ccnc3[nH]ccc23)nc1` [Compound 186], the values for the IC50 in experiment [1], in experiment [2] and in experiment [3] were at most 1 nM, below 50 nM and 1.01 to 5 nM, respectively.
Consider `O=C(N[C@@H]1c2ccccc2OC[C@@H]1O)c1ccc(-c2ccnc3[nH]cc(F)c23)cc1` [Compound 123], for which the 50% inhibitory concentration (IC50) was at most 1 nM in experiment [1], below 50 nM in experiment [2] and at most 1 nM in experiment [3].
`O=C(N[C@@H]1c2ccccc2C[C@H]1N1CCCC1)c1ccc(-c2ccnc3[nH]ccc23)cc1` [Compound 142]: the IC50 in experiment [1] is at most 1 nM; in experiment [2] it was below 50 nM; in experiment [3], at most 1 nM.
As to `O=C(N[C@H]1CCOc2cccc(F)c21)c1ccc(-c2ccnc3[nH]cc(F)c23)cc1` [Compound 128], the values for the IC50 in experiment [1], in experiment [2] and in experiment [3] were at most 1 nM, below 50 nM and at most 1 nM, respectively.
Regarding `O=C(N[C@@H]1c2c(F)cccc2C[C@H]1N1CCCC1)c1ccc(-c2ccnc3[nH]ccc23)nc1` [Compound 157, N-[(1R,2R)-7-Fluoro-2-(pyrrolidin-1-yl)-2,3-dihydro-1H-inden-1-yl]-6-{1H-pyrrolo[2,3-b]pyridin-4-yl}pyridine-3-carboxamide], the figures for the IC50 in experiment [1], in experiment [2] and in experiment [3] were at most 1 nM, below 50 nM and at most 1 nM, respectively.
Regarding `N[C@@H]1Cc2ccccc2[C@H]1NC(=O)c1ccc(-c2ccnc3[nH]ccc23)cc1` [Compound 100, N-[(1R,2R)-2-Amino-2,3-dihydro-1H-inden-1-yl]-4-{1H-pyrrolo[2,3-b]pyridin-4-yl}benzamide], the IC50 in experiment [1] was at most 1 nM; in experiment [2], below 50 nM; in experiment [3], at most 1 nM.
`O=C(N[C@@H]1c2c(F)cccc2OC[C@@H]1O)c1ccc(-c2ccnc3[nH]ccc23)nc1` [Compound 126, N-[(3R,4R)-5-Fluoro-3-hydroxy-3,4-dihydro-2H-1-benzopyran-4-yl]-6-{1H-pyrrolo[2,3-b]pyridin-4-yl}pyridine-3-carboxamide]: the IC50 in experiment [1] was at most 1 nM; in experiment [2] it was below 50 nM; in experiment [3], 1.01 to 5 nM.

The values above are taken from patent US12583856B2, “Inhibitors of protein kinase A” (Blueprint Medicines Corporation, priority 2021, dated 2026).
